SMILES strings stand for the structures.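 Briefly, cells in 96-well plates were exposed to five compound concentrations for 48 h, and endpoints were estimated by linear interpolation. At the GI50, growth is halved.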 The source made the active and inactive calls. Cut-off read from the data, not from the text of the source: active = GI50 up to about 1.1 µM and inactive = higher. Where only a bound is given, the exact number is not on record here.

Holding throughout (assay): growth of human tumour cells (NCI), 48 h
Experiment [1] relates to LOX IMVI.
Experiment [2] deals with UACC-62.
In experiment [3] the test system is U-251.
For experiment [4], the system named is MDA-MB-231.
The test system of experiment [5] is HOP-62.
Experiment [6] concerns 786-0.
For experiment [7], the system named is ACHN.
Experiment [8] concerns COLO 205.
Experiment [9] relates to Hs-578T.
Experiment [10] deals with NCI-H460.
Experiment [11] concerns OVCAR-8.
Experiment [12] concerns NCI-H226.
Experiment [13] has as its system DU-145.
Experiment [14] has as its system SK-MEL-2.
In experiment [15] the test system is KM12.
For experiment [16], the system named is NCI-H23.
Experiment [17] has as its system MCF7.
For experiment [18], the system named is MDA-MB-435.
The subject of experiment [19] is SF-268.
In experiment [20] the test system is A498.

`CN(C)CCCN1c2ccc([N+](=O)[O-])cc2CCc2cc([N+](=O)[O-])ccc21`: the GI50 in experiment [1] is 13.2 µM (inactive); in [2], 14.7 µM (inactive); in experiment [3], 13.7 µM (inactive); in experiment [4] it was 10.3 µM (inactive); in experiment [5], 12.5 µM (inactive); in experiment [6] it was 13.9 µM (inactive). Moreover, the GI50 was 15.6 µM (inactive) in experiment [7]; 14.2 µM (inactive) in [8]; 17.4 µM (inactive) in experiment [9]; 12.6 µM (inactive) in experiment [10]; 15.8 µM (inactive) in experiment [11]; 15.7 µM (inactive) in experiment [12]. Also, the GI50 in experiment [13] was 17.4 µM (inactive); in experiment [14], 17.5 µM (inactive); in experiment [15], 16 µM (inactive); in experiment [16], 18.6 µM (inactive); in [17], 15.6 µM (inactive); in experiment [18], 14.5 µM (inactive). Besides, the GI50 was 14.5 µM (inactive) in experiment [19] and 10.3 µM (inactive) in experiment [20].

`COC(=O)C(COC(C)=O)NC(=O)/C=C/c1ccc(O)c(OC(C)=O)c1` (stereo unspecified): the GI50 in experiment [1] is 44.6 µM (inactive); in [2], > 100 µM (inactive); in experiment [3], 37 µM (inactive); in experiment [4] it was 30.1 µM (inactive); in experiment [5], 49.3 µM (inactive); in experiment [6], 55.8 µM (inactive). Further, the GI50 is 74 µM (inactive) in experiment [7]; > 100 µM (inactive) in [8]; > 100 µM (inactive) in experiment [9]; 60.3 µM (inactive) in experiment [10]; 58.1 µM (inactive) in [11]; > 100 µM (inactive) in experiment [12]. The GI50 in experiment [13] was 58.6 µM (inactive); in [14], > 100 µM (inactive); in experiment [15], 67.1 µM (inactive); in experiment [16], > 100 µM (inactive); in [17], > 100 µM (inactive); in experiment [18] it was > 100 µM (inactive). The GI50 in experiment [19] and in experiment [20] was > 100 µM (inactive) each time.

Consider `Cc1c(NC(=S)NN)c(=O)n(-c2ccccc2)n1C`, for which the GI50 in [1] was > 100 µM (inactive); in experiment [2], > 100 µM (inactive); in [3] it was > 100 µM (inactive); in experiment [4] it was 0.0796 µM (active); in experiment [5] it was > 100 µM (inactive); in experiment [6] it was > 100 µM (inactive). Moreover, the GI50 in experiment [8] was > 100 µM (inactive); in [9], 93.8 µM (inactive); in experiment [10], > 100 µM (inactive); in [11] it was > 100 µM (inactive); in experiment [12], 1.58 µM (inactive); in experiment [13], > 100 µM (inactive). The GI50 in experiment [14], in [15], in [17], in experiment [18], in experiment [19] and in experiment [20] was > 100 µM (inactive) each time.

As to `C#C[C@]1(O)CC[C@H]2[C@@H]3CCC4=C/C(=N/NC(=O)c5cccc6cc7ccccc7nc56)CC[C@@H]4[C@H]3CC[C@@]21CC`, the GI50 in experiment [1] was 48.9 µM (inactive); in experiment [2], 95.5 µM (inactive); in [3], > 100 µM (inactive); in experiment [4] it was > 100 µM (inactive); in experiment [5], 67.9 µM (inactive); in experiment [6], 34.4 µM (inactive). Besides, the GI50 in experiment [7] is > 100 µM (inactive); in experiment [8], 70.5 µM (inactive); in experiment [9], 94 µM (inactive); in experiment [10], 36.3 µM (inactive); in [11] it was 45 µM (inactive); in [12], > 100 µM (inactive). Moreover, the GI50 was > 100 µM (inactive) in experiment [13]; > 100 µM (inactive) in experiment [14]; > 100 µM (inactive) in experiment [15]; > 100 µM (inactive) in [16]; 38.4 µM (inactive) in [17]; 91.4 µM (inactive) in [18]. Besides, the figures for the GI50 in [19] and in [20] were 70 µM (inactive) and > 100 µM (inactive), respectively.

With `O=C(/C=C1\C[C@H]2C=Nc3ccccc3C(=O)N2C1)NCCCCCNC(=O)/C=C1\C[C@H]2C=Nc3ccccc3C(=O)N2C1`, the GI50 in [1] is 1.98 µM (inactive); in experiment [2], 14.7 µM (inactive); in experiment [3], 3.03 µM (inactive); in experiment [4], 16.2 µM (inactive); in experiment [5] it was 14.2 µM (inactive); in experiment [6], 1.84 µM (inactive). The GI50 in [7] is 1.98 µM (inactive); in experiment [8] it was 0.532 µM (active); in experiment [9] it was 22.6 µM (inactive); in experiment [10], 18.3 µM (inactive); in [11], 2.99 µM (inactive); in experiment [12], > 51.5 µM (inactive). Moreover, the GI50 is 13.5 µM (inactive) in experiment [13]; 15.1 µM (inactive) in experiment [14]; 17.7 µM (inactive) in [15]; 9.91 µM (inactive) in experiment [16]; 6.97 µM (inactive) in [17]; 4.7 µM (inactive) in experiment [18]. The GI50 in experiment [19] was 6.49 µM (inactive); in experiment [20], 19.1 µM (inactive).

In the case of `Cc1ccc(C(=O)/C(C#N)=C/Nc2c(C)n(C)n(-c3ccccc3)c2=O)cc1`, the GI50 in experiment [1], in experiment [2], in [3], in [4], in [5] and in [6] was > 100 µM (inactive) throughout. In addition, the GI50 in experiment [7], in experiment [8], in [9], in experiment [10], in experiment [12] and in [13] was > 100 µM (inactive) throughout. The GI50 in [14], in experiment [15], in experiment [16], in experiment [17], in experiment [18] and in [19] was > 100 µM (inactive) in each case. In addition, the GI50 in experiment [20] was > 100 µM (inactive).

On to `COc1ccc(NC(C)=O)c(C(=O)CCNC(C)=O)c1`, for which the GI50 in experiment [1], in [2], in experiment [3], in [4], in experiment [6] and in experiment [7] was > 100 µM (inactive) in each case. Further, the GI50 in experiment [8], in [9], in experiment [10], in [11], in experiment [12] and in experiment [13] was > 100 µM (inactive) each time. Besides, the GI50 in experiment [14], in experiment [15], in experiment [16], in experiment [17], in [18] and in experiment [19] was > 100 µM (inactive) in each case. In addition, the GI50 in [20] is > 100 µM (inactive).

Source of the values: ChEMBL document CHEMBL1201862, “PubChem BioAssay data set” (2004).
